According to publication PMC3823594, “Conformational Changes Underlying Pore Dilation in the Cytoplasmic Domain of Mammalian Inward Rectifier K^+ Channels” (PLoS ONE, 2013):
Positions count from the first letter of the chain named.

Key:
Kir3.2 WT = assay: Inside-out patch clamp recording of channel activity; assay type: cell-based, mouse; details: Kir3.2 WT in HEK293T inside-out patches, −100 mV
Method: (§1) The Kir3.2d and m2R subcloned into pcDNA3 (Invitrogen) were transfected into HEK293T cells using the Lipofectamine Plus reagent (Invitrogen, Carlsbad, CA). Single-channel activity was recorded in a cell-attached configuration at a holding potential of -100 mV using a patch-clamp amplifier (Axopatch 200B; Axon Instruments). The current traces were low-pass filtered at 1 kHz and digitized at 10 kHz. The glass pipettes had resistances of 2.5–3.5 MΩ when filled with the pipette solution, which contained 135 mM KCl, 1 mM CaCl2, 1.6 mM MgCl2, 5 mM HEPES, and 5 μM ACh; the bath solution was a Tyrode solution. A 50% crossing criterion for the current amplitude was used to judge the single-channel activity.
(§2) Inside-out patch clamp experiments were performed by the excision of patch membranes in the cell-attached configuration. The bath solution consisted of 135 mM KCl, 5 mM EGTA, 2 mM MgCl2 and 5 mM HEPES. The holding potential was -100 mV. We perfused ATP at the intracellular side to produce PIP2 at the inner leaflet of the plasma membrane, GTP (3 μM) to produce Gβγ mildly and GTPγS (10 μM) to generate Gβγ maximally. The pH of all solutions was adjusted to 7.35 with KOH prior to the experiments. All experiments were conducted at ambient temperature (20–25°C).
Figure 5 Inside-out patch recordings of Kir3.2 WT and mutant channels. […]

Kir3.2 M313T = target: T1, Kir3.2 M313T (Mus musculus, UniProt P48542, I313T); assay: as above; assay type: cell-based; details: Kir3.2 M313T in HEK293T inside-out patches, −100 mV
T1 sequence (P48542 19-425 I313T): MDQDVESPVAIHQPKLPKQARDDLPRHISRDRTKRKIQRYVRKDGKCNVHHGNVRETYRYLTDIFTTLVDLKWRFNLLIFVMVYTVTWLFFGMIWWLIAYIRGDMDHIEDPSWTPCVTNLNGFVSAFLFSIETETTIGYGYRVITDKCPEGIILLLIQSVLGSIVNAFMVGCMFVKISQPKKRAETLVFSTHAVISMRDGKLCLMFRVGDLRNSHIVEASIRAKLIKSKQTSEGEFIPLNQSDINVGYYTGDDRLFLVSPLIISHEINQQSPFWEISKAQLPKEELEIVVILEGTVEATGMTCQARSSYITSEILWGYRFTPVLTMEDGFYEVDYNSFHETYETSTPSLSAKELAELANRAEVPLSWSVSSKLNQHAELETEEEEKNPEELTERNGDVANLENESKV
T1 sequence (P06199 1-466 partner): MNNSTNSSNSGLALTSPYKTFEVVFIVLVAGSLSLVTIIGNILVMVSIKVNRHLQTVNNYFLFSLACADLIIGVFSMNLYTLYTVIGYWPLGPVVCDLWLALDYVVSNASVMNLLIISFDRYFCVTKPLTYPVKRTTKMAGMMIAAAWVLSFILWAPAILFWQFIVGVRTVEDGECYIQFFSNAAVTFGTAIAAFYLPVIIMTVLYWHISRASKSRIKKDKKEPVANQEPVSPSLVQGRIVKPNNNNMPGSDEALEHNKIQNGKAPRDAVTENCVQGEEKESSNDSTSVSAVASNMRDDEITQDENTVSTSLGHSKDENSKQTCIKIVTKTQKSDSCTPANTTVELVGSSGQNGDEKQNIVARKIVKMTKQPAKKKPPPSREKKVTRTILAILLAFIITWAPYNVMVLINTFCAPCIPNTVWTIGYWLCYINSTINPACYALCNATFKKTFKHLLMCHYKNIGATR
Method: as §1, §2
(§3) Figure 5 Inside-out patch recordings of Kir3.2 WT and mutant channels. Inside-out membrane patches were obtained from HEK293T cells expressing either Kir3.2 WT (A), M313G (B) or M313T mutant (C) channels. Experiments were conducted in symmetric 135 mM K^+ solutions with a holding potential of -100 mV. Perfusion of ATP was for the generation of PIP2 at the inner leaflet of the excised patch membranes. The protocol used for perfusion of substances to the intracellular side of the patch membrane is indicated by bars above the current traces.

Kir3.2 M313G = target: T2, Kir3.2 M313G (Mus musculus, UniProt P48542, I313G); assay: as above; assay type: cell-based; details: Kir3.2 M313G in HEK293T inside-out patches; ATP perfused at 2 mM; −100 mV
T2 sequence (P48542 19-425 I313G): T1 sequence (P48542 19-425 I313T) with T295G
T2 sequence (P06199 1-466 partner): T1 sequence (P06199 1-466 partner)
Method: as §1, §2, §3

[1] = target: cytoplasmic domain (CPD) of the mouse Kir3.2 E236R mutant (mouse); assay: not stated; purified CPD E236R in solution; the method for the oligomeric state is not told
[2] = target: cytoplasmic domain (CPD) of the mouse Kir3.2 E236R mutant (mouse); assay: crystal structure; sitting drops; reservoir 15% (v/v) ethanol, 0.1 M HEPES-NaOH (pH 7.5), 0.2 M MgCl2; 4°C; space group P4212; 2.0 Å

Nc1ncnc2c1ncn2[C@@H]1O[C@H](COP(=O)(O)OP(=O)(O)OP(=O)(O)O)[C@@H](O)[C@H]1O [ATP]
Channel activity as % of that evoked by 10 μM GTPγS (Kir3.2 WT; ATP perfused at 2 mM): 15 ± 4% | Sensitivity to ATP perfusion (Kir3.2 M313T; in contrast to M313G): less sensitive | Channel activity as % of that evoked by 10 μM GTPγS (Kir3.2 M313G): 59 ± 6%

cytoplasmic domain (CPD) of the mouse Kir3.2 E236R mutant (domain or fragment)
stoichiometry N [1]: 4 | stoichiometry N [2]: 4

Nc1nc2c(ncn2[C@@H]2O[C@H](COP(=O)(O)OP(=O)(O)OP(=O)(O)O)[C@@H](O)[C@H]2O)c(=O)[nH]1 [GTP]
Channel activity as % of the response evoked by GTPγS (Kir3.2 WT; GTP (3 μM)): 4 ± 2% | Channel activity as % of the response evoked by GTPγS (Kir3.2 M313T; GTP (3 μM)): about 11 ± 2%
